From patent US20170157260A1, “Glycosylated Polypeptide and Drug Composition Containing said Polypeptide” (Glytech, Inc., priority 2011, published 2017)

Key:
[1] = system: growth hormone (GH) production; assay: GH production suppression test with rats; type: in vivo; conditions: Table 7 (Example 86), subcutaneous, 1 hour before GRF, plasma GH 5 minutes after GRF, vehicle 861
Procedure: This experimental line was carried out as a test line that can evaluate the pharmacological action of the glycosylated form on SSTR and its residence in blood after administration, with blood GH production amount as an indicator.
Moreover, GRF (GH releasing hormone, Growth hormone releasing factor) was used as the GH release enhancer. […] As heparin employed as the anticoagulant when collecting blood, Japanese Pharmacopeia heparin sodium injectable solution (Lot. B084, from Mochida Pharmaceutical Co., Ltd.) was used directly as stock solution.
As the control group, saline without glycosylated polypeptide was similarly administered (vehicle group). […] One hour after administration of the glycosylated form, i.e. after 50 minutes or more had passed under anesthesia, GRF was administered as the GH release enhancer to the tail vain at a dosage of 1 mL/kg with a glass syringe and an injection needle. Five minutes after administration of GRF, blood was collected from the rat cervical vein with a glass syringe containing heparin and an injection needle. 0.4 mL of the collected blood was left on ice for 20 minutes or more, then centrifuged (1,870×g, 4° C., 10 minutes), and 100 μL of the supernatant was taken as the plasma sample. As blank plasma, plasma obtained by similarly treating the blood collected from untreated rat cervical vein was employed. Plasma samples were frozen in storage until employed for measurement.
The plasma sample was diluted with the assay buffer supplied in the EIA kit to 20, 100, and 500-folds as measurement samples. […] By multiplying the results obtained and the dilution ratio, the GH concentration was calculated.

[2] = system: rat gastrointestinal obstruction model; assay: Gastrointestinal obstruction model: intestinal fluid weight; type: in vivo, rats; conditions: Table 9; jejunum, 1 hour after subcutaneous administration of 40 μM solution at 1 mL/kg, 18 hours after ligation
Procedure: (§1) This experimental line was carried out as a test line to evaluate the promotion of intestinal fluid absorption or the secretory suppressing action, using the change in the intestinal fluid weight in the jejunum after bowel obstruction as an indicator. Moreover, blood parameters of deviation enzymes amylase (pancreas), lactate dehydrogenase (LDH, liver), and creatine phosphokinase (CPK, skeletal muscle, cardiac muscle etc.) were measured as indicators of tissue disorders.
Anesthesia was introduced with inhalation of 2% isoflurane and laughing gas:oxygen=7:3, and this was maintained throughout the surgery. A median incision was made in the abdomen, and the jejunum at about 10 cm from the musculus suspensorius duodeni was ligated with a surgical suture. Then, the incision site was promptly sutured, and the rats were fasted until compound administration. […]
One hour after compound administration, a median incision was made in the abdomen under inhalation anesthesia, and 1.5 mL of blood was collected from the abdominal vena cava. […] The fluid and blood on the jejunum surface were removed with a paper towel, nerves, blood vessels, and fat attached to the jejunum was removed, this was cut into 6 cm lengths, and wet weight was measured. This was then dried at 36 degrees for 24 hours, and dry weight was measured.

[3] = system: rat gastrointestinal obstruction model; assay: Gastrointestinal obstruction model: blood parameters (amylase, LDH, CPK); conditions: Table 10; blood 1 hour after subcutaneous administration
Procedure: as §1
Anesthesia was introduced with inhalation of 2% isoflurane and laughing gas:oxygen=7:3, and this was maintained throughout the surgery. A median incision was made in the abdomen, and the jejunum at about 10 cm from the musculus suspensorius duodeni was ligated with a surgical suture. Then, the incision site was promptly sutured, and the rats were fasted until compound administration. In the sham treatment group, ligation of the jejunum was not performed, but the treatment of suturing the incision site after a median incision was made in the abdomen was performed.
Eighteen hours after the gastrointestinal obstruction surgery, this was subcutaneously administered into the dorsal cervix at a dosage of 1 mL/kg with a glass syringe and a 25 G injection needle (all from Terumo Corporation). As the vehicle group, saline without glycosylated polypeptide was similarly administered.
One hour after compound administration, a median incision was made in the abdomen under inhalation anesthesia, and 1.5 mL of blood was collected from the abdominal vena cava. Then, the ligated jejunum on the musculus suspensorius duodeni side was resected. The fluid and blood on the jejunum surface were removed with a paper towel, nerves, blood vessels, and fat attached to the jejunum was removed, this was cut into 6 cm lengths, and wet weight was measured. This was then dried at 36 degrees for 24 hours, and dry weight was measured.
The measuring methods employed were BG5B, UV-rate, and JSCC methods, respectively.

| Compound | GH ([1]; dose 10 nmol/kg) | GH ([1]; dose 100 nmol/kg) | Intestinal fluid weight [2] | amylase activity compared to the vehicle (in words) [3] | also measured |
| --- | --- | --- | --- | --- | --- |
| 29C(disialo)-SRIF28 [Example 13] | 497 ng/mL | 88.5 ng/mL |  |  |  |
| C[C@@H](O)[C@@H]1NC(=O)[C@H](CCCCN)NC(=O)[C@@H](Cc2c[nH]c3ccccc23)NC(=O)[C@H](Cc2ccccc2)NC(=O)[C@@H](NC(=O)[C@H](N)Cc2ccccc2)CSSC[C@@H](C(=O)N[C@H](CO)[C@@H](C)O)NC1=O [Octreotide, reference compound] |  |  | 693 ± 48 mg |  |  |
| C(disialo)-R-K-SRIF14 [Example 18] |  |  |  | low value compared to the vehicle | LDH activity compared to the vehicle (in words) [3]: low value compared to the vehicle |
| N19C(disialo)-SRIF28 [Example 10] | 563 ng/mL | 1.5 ng/mL |  |  |  |
| S1-2C(asialo)-SRIF28 [Example 28] |  |  | 566 ± 34 mg |  |  |
| S1C(disialo)-SRIF28 [Example 1] |  |  |  | low value compared to the vehicle |  |
